Source: ChEMBL document CHEMBL5126513 (Eur J Med Chem, 2022)
Values belong to the compound of their own block, whether it stands above or below them.

What was measured:
[1] = molecular target: T1, Protein cereblon/Tyrosine-protein kinase BTK (Homo sapiens, UniProt Q06187+Q96SW2); assay: Protac activity at CRBN/BTK in human MINO cells assessed as BTK degradation; assay type: cell-based
[2] = molecular target: T1, Protein cereblon/Tyrosine-protein kinase BTK; assay: Protac activity at CRBN (unknown origin)/BTK (unknown origin) assessed as BTK degradation; assay type: protein assay
[3] = molecular target: T2, Tyrosine-protein kinase BTK (Homo sapiens, UniProt Q06187); assay: Inhibition of full-length wild-type BTK (unknown origin) measured by HTRF assay
[4] = molecular target: T2, Tyrosine-protein kinase BTK; assay: Inhibition of BTK (unknown origin)
[5] = molecular target: T3, Tyrosine-protein kinase TXK (Homo sapiens, UniProt P42681); assay: Inhibition of TXK (unknown origin)
T3 sequence (P42681 whole entry): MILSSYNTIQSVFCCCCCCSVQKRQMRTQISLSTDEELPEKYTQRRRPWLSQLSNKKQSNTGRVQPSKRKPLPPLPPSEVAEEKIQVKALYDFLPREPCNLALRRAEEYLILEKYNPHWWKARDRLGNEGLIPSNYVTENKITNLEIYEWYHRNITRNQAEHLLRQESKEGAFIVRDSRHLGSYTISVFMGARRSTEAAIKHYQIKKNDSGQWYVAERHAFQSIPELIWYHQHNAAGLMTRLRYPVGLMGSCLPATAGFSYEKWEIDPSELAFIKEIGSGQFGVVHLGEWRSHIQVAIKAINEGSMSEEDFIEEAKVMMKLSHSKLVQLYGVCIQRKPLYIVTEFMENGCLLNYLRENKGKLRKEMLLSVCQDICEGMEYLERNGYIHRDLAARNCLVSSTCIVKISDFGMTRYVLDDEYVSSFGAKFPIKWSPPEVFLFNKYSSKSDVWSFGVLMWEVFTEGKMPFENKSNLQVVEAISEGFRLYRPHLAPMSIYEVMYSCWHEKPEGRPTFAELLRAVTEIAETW

[6] = molecular target: Tyrosine-protein kinase Blk (Homo sapiens, UniProt P51451); assay: Inhibition of BLK (unknown origin)
Tyrosine-protein kinase Blk, sequence (P51451 whole entry): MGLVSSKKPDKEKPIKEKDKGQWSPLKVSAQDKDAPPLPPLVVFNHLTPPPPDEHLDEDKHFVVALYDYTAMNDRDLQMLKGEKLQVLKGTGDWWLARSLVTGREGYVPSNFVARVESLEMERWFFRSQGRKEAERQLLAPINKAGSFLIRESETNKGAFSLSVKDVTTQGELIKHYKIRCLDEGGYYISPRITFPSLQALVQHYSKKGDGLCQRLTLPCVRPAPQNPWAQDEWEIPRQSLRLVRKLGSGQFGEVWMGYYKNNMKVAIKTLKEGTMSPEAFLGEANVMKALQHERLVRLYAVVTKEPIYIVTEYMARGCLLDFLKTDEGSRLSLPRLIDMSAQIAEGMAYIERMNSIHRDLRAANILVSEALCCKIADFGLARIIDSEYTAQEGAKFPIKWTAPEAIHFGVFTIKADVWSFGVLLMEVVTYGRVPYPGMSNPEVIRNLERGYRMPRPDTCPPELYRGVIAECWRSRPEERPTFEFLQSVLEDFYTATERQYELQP

T1 sequence (Q06187 whole entry): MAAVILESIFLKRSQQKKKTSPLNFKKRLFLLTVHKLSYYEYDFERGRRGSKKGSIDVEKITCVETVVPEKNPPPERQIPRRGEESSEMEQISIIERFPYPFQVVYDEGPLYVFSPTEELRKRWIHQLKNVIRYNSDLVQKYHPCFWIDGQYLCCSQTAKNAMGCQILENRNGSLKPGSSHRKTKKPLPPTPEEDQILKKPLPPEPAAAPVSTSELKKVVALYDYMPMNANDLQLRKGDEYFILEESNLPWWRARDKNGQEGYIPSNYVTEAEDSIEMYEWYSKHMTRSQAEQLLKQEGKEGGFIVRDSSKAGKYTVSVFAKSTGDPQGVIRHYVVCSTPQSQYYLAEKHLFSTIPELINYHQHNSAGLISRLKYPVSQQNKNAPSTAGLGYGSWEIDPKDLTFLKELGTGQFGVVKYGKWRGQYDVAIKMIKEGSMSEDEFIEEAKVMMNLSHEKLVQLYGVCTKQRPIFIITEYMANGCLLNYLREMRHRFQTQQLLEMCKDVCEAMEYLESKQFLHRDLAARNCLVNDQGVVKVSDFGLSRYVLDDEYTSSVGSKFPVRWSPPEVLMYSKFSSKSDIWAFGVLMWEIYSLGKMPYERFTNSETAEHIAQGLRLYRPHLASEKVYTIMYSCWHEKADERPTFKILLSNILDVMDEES
T1 sequence (Q96SW2 whole entry): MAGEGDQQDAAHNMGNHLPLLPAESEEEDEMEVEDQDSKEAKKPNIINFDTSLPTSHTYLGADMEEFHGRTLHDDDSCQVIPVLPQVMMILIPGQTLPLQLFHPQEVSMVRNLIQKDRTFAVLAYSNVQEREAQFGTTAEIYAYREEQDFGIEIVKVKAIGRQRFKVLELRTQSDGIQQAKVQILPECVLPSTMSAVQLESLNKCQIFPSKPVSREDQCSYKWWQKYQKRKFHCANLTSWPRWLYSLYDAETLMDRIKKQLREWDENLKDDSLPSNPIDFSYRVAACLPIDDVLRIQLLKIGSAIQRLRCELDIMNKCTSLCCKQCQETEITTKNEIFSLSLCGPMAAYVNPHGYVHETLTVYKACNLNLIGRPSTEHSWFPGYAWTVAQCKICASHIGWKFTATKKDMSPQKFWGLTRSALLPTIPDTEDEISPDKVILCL
T2 sequence (Q06187 whole entry): as the sequence (Q06187 whole entry) above

SMILES: Nc1ncnc2c1c(-c1ccc(Oc3ccccc3)cc1)nn2[C@@H]1CCCN(C(=O)c2cn(CCOCCOCCOCCCc3ccc4c(c3)CN(C3CCC(=O)NC3=O)C4=O)nn2)C1 (stereo partly specified)
- DC50 [1]: 9.2 nM

SMILES: O=C1CCC(N2C(=O)c3ccc(NCCOCCOCCOCCOCCOCCNC(=O)N[C@H]4CC[C@@H](Nc5ncnc6[nH]cc(C(=O)c7ccc(Oc8ccccc8)cc7Cl)c56)CC4)cc3C2=O)C(=O)N1 (stereo partly specified)
- DC50 [2]: 41.9 nM

SMILES: CC#CC(=O)N1CC[C@@H](n2c(=O)n(-c3ccc(Oc4ccccc4)cc3)c3c(N)ncnc32)C1 [TIRABRUTINIB]
- IC50 [5]: 116 nM
- IC50 [6]: 1130 nM

Continued, values first:

- IC50 [3]: 10.7 nM
SMILES: Cc1cc(Nc2ncc3c(n2)N(C)CN(c2cc(NC(=O)c4cccc(C(F)(F)F)c4)ccc2C)C3)n(C)n1

- IC50 [4]: < 1 nM
SMILES: COc1ccc(F)cc1C(=O)NCc1ccc(-c2nn([C@@H](C)C(F)(F)F)c(N)c2C(N)=O)cc1 [PIRTOBRUTINIB]
